± gives the expanded uncertainty stated by the source.
Settings: 101.33 kPa, Liquid
[1] = 278 K, Concentric cylinders viscometry
[2] = 283 K, Concentric cylinders viscometry
[3] = 283 K, Falling or rolling sphere viscometry
[4] = 288 K, Concentric cylinders viscometry
[5] = 293 K, Concentric cylinders viscometry
[6] = 293 K, Falling or rolling sphere viscometry
[7] = 298 K, Concentric cylinders viscometry
[8] = 303 K, Concentric cylinders viscometry
[9] = 308 K, Concentric cylinders viscometry
[10] = 313 K, Concentric cylinders viscometry
[11] = 313 K, Falling or rolling sphere viscometry
[12] = 318 K, Concentric cylinders viscometry
[13] = 323 K, Concentric cylinders viscometry
[14] = 328 K, Concentric cylinders viscometry
[15] = 333 K, Concentric cylinders viscometry
[16] = 333 K, Falling or rolling sphere viscometry
[17] = 338 K, Concentric cylinders viscometry
[18] = 343 K, Concentric cylinders viscometry
[19] = 348 K, Concentric cylinders viscometry
[20] = 353 K, Concentric cylinders viscometry
[21] = 353 K, Falling or rolling sphere viscometry
[22] = 358 K, Concentric cylinders viscometry
[23] = 373 K, Falling or rolling sphere viscometry
[24] = 393 K, Falling or rolling sphere viscometry

SMILES	viscosity [1] [mPa·s]	viscosity [2] [mPa·s]	viscosity [4] [mPa·s]	viscosity [5] [mPa·s]	viscosity [6] [mPa·s]	viscosity [7] [mPa·s]	viscosity [8] [mPa·s]	viscosity [9] [mPa·s]	viscosity [10] [mPa·s]	viscosity [11] [mPa·s]	viscosity [12] [mPa·s]	viscosity [13] [mPa·s]	viscosity [14] [mPa·s]	viscosity [15] [mPa·s]	viscosity [16] [mPa·s]	viscosity [17] [mPa·s]	viscosity [18] [mPa·s]	viscosity [19] [mPa·s]	viscosity [20] [mPa·s]	viscosity [22] [mPa·s]	further results
CCn1cc[n+](C)c1.O=S(=O)([N-]S(=O)(=O)C(F)(F)F)C(F)(F)F	76.05 ± 3.9	60.15 ± 3.1	48.47 ± 2.5	39.71 ± 2	39.54 ± 2	33 ± 1.7	27.78 ± 1.4	23.66 ± 1.2	20.37 ± 1	20.49 ± 1.1	17.69 ± 0.9	15.5 ± 0.79	13.68 ± 0.7	12.16 ± 0.62	12.42 ± 0.64	10.87 ± 0.56	9.784 ± 0.5	8.848 ± 0.45	8.041 ± 0.41	7.34 ± 0.38	viscosity [3]: 59.8 ± 3.1 mPa·s; viscosity [21]: 8.036 ± 0.41 mPa·s
CCCCCCCCC[n+]1ccn(C)c1.O=S(=O)([N-]S(=O)(=O)C(F)(F)F)C(F)(F)F																					viscosity (278 K, Capillary tube (Ostwald / Ubbelohde) method): 348.2 ± 20 mPa·s; viscosity (283 K, Capillary tube (Ostwald / Ubbelohde) method): 249.7 ± 14 mPa·s; viscosity (288 K, Capillary tube (Ostwald / Ubbelohde) method): 183.88 ± 10 mPa·s; viscosity (293 K, Capillary tube (Ostwald / Ubbelohde) method): 138.55 ± 7.3 mPa·s; viscosity (298 K, Capillary tube (Ostwald / Ubbelohde) method): 106.41 ± 5.5 mPa·s; viscosity (303 K, Capillary tube (Ostwald / Ubbelohde) method): 83.35 ± 4.2 mPa·s; viscosity (308 K, Capillary tube (Ostwald / Ubbelohde) method): 66.2 ± 3.3 mPa·s; viscosity (313 K, Capillary tube (Ostwald / Ubbelohde) method): 53.43 ± 2.7 mPa·s; viscosity (318 K, Capillary tube (Ostwald / Ubbelohde) method): 43.76 ± 2.2 mPa·s; viscosity (323 K, Capillary tube (Ostwald / Ubbelohde) method): 36.28 ± 1.8 mPa·s; viscosity (328 K, Capillary tube (Ostwald / Ubbelohde) method): 30.43 ± 1.5 mPa·s; viscosity (333 K, Capillary tube (Ostwald / Ubbelohde) method): 25.77 ± 1.3 mPa·s; viscosity (338 K, Capillary tube (Ostwald / Ubbelohde) method): 22.12 ± 1.1 mPa·s; viscosity (343 K, Capillary tube (Ostwald / Ubbelohde) method): 19.09 ± 0.96 mPa·s; viscosity (348 K, Capillary tube (Ostwald / Ubbelohde) method): 16.61 ± 0.84 mPa·s; viscosity (353 K, Capillary tube (Ostwald / Ubbelohde) method): 14.53 ± 0.73 mPa·s; viscosity (358 K, Capillary tube (Ostwald / Ubbelohde) method): 12.82 ± 0.65 mPa·s; viscosity (363 K, Capillary tube (Ostwald / Ubbelohde) method): 11.4 ± 0.57 mPa·s
CCCCCCCn1cc[n+](C)c1.O=S(=O)([N-]S(=O)(=O)C(F)(F)F)C(F)(F)F	235 ± 13	182.82 ± 9.6	136.42 ± 7.1	104.17 ± 5.3		81.11 ± 4.1	64.28 ± 3.2	51.75 ± 2.6	42.28 ± 2.1		34.99 ± 1.8	29.3 ± 1.5	24.81 ± 1.2	21.2 ± 1.1		18.3 ± 0.92	15.92 ± 0.8	13.95 ± 0.7	12.31 ± 0.62	10.93 ± 0.55	viscosity (363 K, Concentric cylinders viscometry): 9.753 ± 0.49 mPa·s
CCCCCn1cc[n+](C)c1.O=S(=O)([N-]S(=O)(=O)C(F)(F)F)C(F)(F)F	164.73 ± 8.6	123.09 ± 6.3	93.65 ± 4.8	72.76 ± 3.7	78.44 ± 4.1	57.81 ± 2.9	46.38 ± 2.3	37.92 ± 1.9	31.43 ± 1.6	33.94 ± 1.7	26.38 ± 1.3	22.4 ± 1.1	19.2 ± 0.97	16.6 ± 0.84	18.52 ± 0.94	14.48 ± 0.73	12.73 ± 0.64	11.27 ± 0.57	10.04 ± 0.51	8.996 ± 0.45	viscosity [3]: 133.33 ± 7.8 mPa·s; viscosity [21]: 10.89 ± 0.55 mPa·s; viscosity [23]: 7.19 ± 0.36 mPa·s; viscosity [24]: 5.15 ± 0.26 mPa·s
CCCC[n+]1ccn(C)c1.O=S(=O)([N-]S(=O)(=O)C(F)(F)F)C(F)(F)F	137.62 ± 7.1	104.14 ± 5.3	80.16 ± 4.1	62.99 ± 3.2	63.05 ± 3.2	50.62 ± 2.5	41.12 ± 2.1	33.89 ± 1.7	28.28 ± 1.4	28.63 ± 1.5	23.92 ± 1.2	20.45 ± 1	17.66 ± 0.89	15.38 ± 0.77	16 ± 0.81	13.5 ± 0.68	11.93 ± 0.6	10.61 ± 0.53	9.501 ± 0.48	8.553 ± 0.43	viscosity [21]: 9.911 ± 0.5 mPa·s; viscosity [23]: 6.548 ± 0.33 mPa·s; viscosity [24]: 4.785 ± 0.24 mPa·s
